EC50 and IC50 data for 12 compounds are collected here from patent publication US20250320213A1, “Nitrogen-Containing Heterocyclic Compounds” (Pfizer Inc., priority 2024, published 2025).

For one test, the target named is T1, STAT6 (Homo sapiens, UniProt P42226).
T1 construct: stably transfected HaCaT keratinocyte cell line, which expresses NanoLuc luciferase reporter gene under the transcriptional control of the STAT6 responsive promoter; endogenous in cells; host or cells: HaCaT keratinocyte reporter cell line (stably transfected with a NanoLuc reporter)
T1 sequence (P42226 1-847): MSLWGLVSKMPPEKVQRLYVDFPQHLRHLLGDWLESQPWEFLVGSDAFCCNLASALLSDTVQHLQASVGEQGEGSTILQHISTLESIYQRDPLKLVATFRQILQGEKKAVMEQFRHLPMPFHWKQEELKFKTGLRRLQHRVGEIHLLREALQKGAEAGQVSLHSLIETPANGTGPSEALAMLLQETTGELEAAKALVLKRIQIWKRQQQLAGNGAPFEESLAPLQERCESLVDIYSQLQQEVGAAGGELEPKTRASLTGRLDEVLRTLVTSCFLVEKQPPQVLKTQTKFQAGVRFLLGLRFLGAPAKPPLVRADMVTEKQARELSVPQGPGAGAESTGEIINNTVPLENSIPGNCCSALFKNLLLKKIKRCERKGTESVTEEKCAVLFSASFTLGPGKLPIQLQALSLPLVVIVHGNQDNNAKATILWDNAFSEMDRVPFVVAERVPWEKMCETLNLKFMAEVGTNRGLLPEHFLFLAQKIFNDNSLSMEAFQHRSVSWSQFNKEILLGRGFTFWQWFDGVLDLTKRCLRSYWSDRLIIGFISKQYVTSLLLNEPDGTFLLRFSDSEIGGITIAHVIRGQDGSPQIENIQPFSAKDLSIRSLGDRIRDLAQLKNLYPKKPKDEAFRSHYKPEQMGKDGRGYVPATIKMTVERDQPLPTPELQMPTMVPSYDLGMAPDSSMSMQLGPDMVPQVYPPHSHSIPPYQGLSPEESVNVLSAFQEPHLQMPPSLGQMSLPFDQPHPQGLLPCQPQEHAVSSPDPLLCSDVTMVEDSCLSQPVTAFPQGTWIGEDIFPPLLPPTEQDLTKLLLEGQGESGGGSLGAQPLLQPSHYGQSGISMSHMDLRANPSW
Description: STAT6 Reporter Luciferase Assay (IL-13 stimulated HaCaT keratinocyte NanoLuc reporter cells). In kind it is cell-based. The following applies: IL-13 stimulated HaCaT STAT6 NanoLuc reporter cells; read-out: Reporter EC50. Summed up: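 Luminescence from a NanoLuc reporter driven by the STAT6-responsive IL-13Ra2 promoter in HaCaT keratinocytes serves as the read-out. Compounds are given 2 h before a 4 h stimulation with 0.12 nM IL-13.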

The test system of test [1] is CCL17 secretion in peripheral human whole blood. Description: Human Whole Blood (HWB) CCL17 TR-FRET Assay (IL-13 stimulated CCL17 secretion). In kind it is cell-based. The settings on record: human whole blood. Summed up:
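Compounds are titrated (11 points, 3-fold, duplicate) into fresh heparinized human whole blood and held 2 h at 37 °C before IL-13 challenge (10 ng/mL final). After 48 h at 37 °C, serum CCL17 is measured by TR-FRET sandwich assay and IC50 values are calculated.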

Where [2] appears, read: Homo sapiens, 48 h, IL-13 10 ng/mL.

Turning to `CN[C@@H]1CCN(C(=O)Nc2ccc(CNC(=O)c3nn(C(C)C)c4c3CN(c3ccc(C(=O)N(C)C)cc3)C[C@@H]4C)cc2)C1` [Example 722, (S)-5-(4-(dimethylcarbamoyl)phenyl)-1-isopropyl-7-methyl-N-(4-((R)-3-(methylamino)pyrrolidine-1-carboxamido)benzyl)-4,5,6,7-tetrahydro-1H-pyrazolo[4,3-c]pyridine-3-carboxamide], the EC50 at STAT6 stood at 8 nM. For the same compound, the IC50 in test [1] (setting [2]) is 40 nM.

In the case of `Cc1coc(-c2ccc(CNC(=O)c3nn(C(C)C)c4c3CN(c3ccc(C(=O)N(C)C)cc3)C[C@@H]4C)cc2)n1` [Example 723, (S)-5-(4-(dimethylcarbamoyl)phenyl)-1-isopropyl-7-methyl-N-(4-(4-methyloxazol-2-yl)benzyl)-4,5,6,7-tetrahydro-1H-pyrazolo[4,3-c]pyridine-3-carboxamide], the EC50 on STAT6 came out at 128 nM. In addition, in test [1] (setting [2]), the IC50 came to 665 nM.

`Cc1cncc(-c2ccc(CNC(=O)c3nn(C(C)C)c4c3CN(c3ccc(C(=O)N(C)C)cc3)C[C@H]4C)cc2)n1` [Example 724, (R)-5-(4-(dimethylcarbamoyl)phenyl)-1-isopropyl-7-methyl-N-(4-(6-methylpyrazin-2-yl)benzyl)-4,5,6,7-tetrahydro-1H-pyrazolo[4,3-c]pyridine-3-carboxamide]: the EC50 at STAT6 turned out to be 129 nM. Besides, in test [1] (setting [2]), the IC50 turned out to be 5060 nM.

Consider `CC(C)n1nc(C(=O)NCc2ccc(-c3ccn(C)n3)cc2)c2c1[C@@H](C)CN(c1ccc(C(=O)N(C)C)cc1)C2` [Example 725, (S)-5-(4-(dimethylcarbamoyl)phenyl)-1-isopropyl-7-methyl-N-(4-(1-methyl-1H-pyrazol-3-yl)benzyl)-4,5,6,7-tetrahydro-1H-pyrazolo[4,3-c]pyridine-3-carboxamide], for which, on STAT6, the EC50 turned out to be 177 nM. The same compound returned an IC50 in test [1] (setting [2]) of 4460 nM.

Regarding `Cc1cccc(-c2ccc(CNC(=O)c3nn(C(C)C)c4c3CN(c3ccc(C(=O)N(C)C)cc3)C[C@@H]4C)cc2)n1` [Example 726, (S)-5-(4-(dimethylcarbamoyl)phenyl)-1-isopropyl-7-methyl-N-(4-(6-methylpyridin-2-yl)benzyl)-4,5,6,7-tetrahydro-1H-pyrazolo[4,3-c]pyridine-3-carboxamide], the EC50 on STAT6 was 123 nM. Besides, the IC50 in test [1] (setting [2]) is 5680 nM.

Take `Cc1ccc(-c2ccc(CNC(=O)c3nn(C(C)C)c4c3CN(c3ccc(C(=O)N(C)C)cc3)C[C@@H]4C)cc2)nn1` [Example 727, (S)-5-(4-(dimethylcarbamoyl)phenyl)-1-isopropyl-7-methyl-N-(4-(6-methylpyridazin-3-yl)benzyl)-4,5,6,7-tetrahydro-1H-pyrazolo[4,3-c]pyridine-3-carboxamide]: the EC50 at STAT6 came out at 11 nM. In addition, half-maximal inhibition in test [1] (setting [2]) (IC50) required 383 nM.

On to `Cc1nccc(-c2ccc(CNC(=O)c3nn(C(C)C)c4c3CN(c3ccc(C(=O)N(C)C)cc3)C[C@@H]4C)cc2)n1` [Example 728, (S)-5-(4-(dimethylcarbamoyl)phenyl)-1-isopropyl-7-methyl-N-(4-(2-methylpyrimidin-4-yl)benzyl)-4,5,6,7-tetrahydro-1H-pyrazolo[4,3-c]pyridine-3-carboxamide], for which the EC50 on STAT6 was found to be 231 nM. In test [1] (setting [2]), this compound showed an IC50 of 4210 nM.

For the compound `Cc1csc(-c2ccc(CNC(=O)c3nn(C(C)C)c4c3CN(c3ccc(C(=O)N(C)C)cc3)C[C@@H]4C)cc2)n1` [Example 729, (S)-5-(4-(dimethylcarbamoyl)phenyl)-1-isopropyl-7-methyl-N-(4-(4-methylthiazol-2-yl)benzyl)-4,5,6,7-tetrahydro-1H-pyrazolo[4,3-c]pyridine-3-carboxamide], at STAT6, the EC50 stood at 683 nM. The 50% inhibitory concentration (IC50) in test [1] (setting [2]) amounted to 4330 nM.

Take `Cc1ccnc(-c2ccc(CNC(=O)c3nn(C(C)C)c4c3CN(c3ccc(C(=O)N(C)C)cc3)C[C@@H]4C)cc2)n1` [Example 730, (S)-5-(4-(dimethylcarbamoyl)phenyl)-1-isopropyl-7-methyl-N-(4-(4-methylpyrimidin-2-yl)benzyl)-4,5,6,7-tetrahydro-1H-pyrazolo[4,3-c]pyridine-3-carboxamide]: the EC50 at STAT6 was > 10000 nM. Further, the IC50 in test [1] (setting [2]) is > 15100 nM.

In the case of `COc1nc(-c2ccc(CNC(=O)c3nn(C(C)C)c4c3CN(c3ccc(C(=O)N(C)C)cc3)C[C@@H]4C)cc2)ncc1N` [Example 731, (S)-N-(4-(5-amino-4-methoxypyrimidin-2-yl)benzyl)-5-(4-(dimethylcarbamoyl)phenyl)-1-isopropyl-7-methyl-4,5,6,7-tetrahydro-1H-pyrazolo[4,3-c]pyridine-3-carboxamide], on STAT6, the EC50 was 82 nM. The compound also yielded an IC50 in test [1] (setting [2]) of 1250 nM.

For `CC(C)n1nc(C(=O)NCc2ccc(-c3cnn(C)c3)cc2)c2c1[C@@H](C)CN(c1ccc(C(=O)N(C)C)cc1)C2` [Example 732, (S)-5-(4-(dimethylcarbamoyl)phenyl)-1-isopropyl-7-methyl-N-(4-(1-methyl-1H-pyrazol-4-yl)benzyl)-4,5,6,7-tetrahydro-1H-pyrazolo[4,3-c]pyridine-3-carboxamide], the EC50 on STAT6 came out at 88 nM. Besides, in test [1] (setting [2]), 3070 nM corresponded to half-maximal inhibition (IC50).

For “rel-(R or S)-5-(5-(dimethylcarbamoyl)pyridin-2-yl)-N-(4-(3,3-dimethylureido)benzyl)-1-methyl-7- [Example 390]”, at STAT6, the EC50 amounted to 39 nM. Further, in test [1] (IL-13 stimulated, 48 hours), half-maximal inhibition (IC50) required 104 nM.
